Assay results reported in PMC7011792 (Journal of Enzyme Inhibition and Medicinal Chemistry, 2017).
Where two headings read alike, the source gives them in different places.

Columns and labels:
[1] = target: T1, AChE (EC 3.1.1.7) from electric eel (Electrophorus electricus, UniProt O42275); test: biochemical
T1 construct: purchased Sigma-Aldrich C3389
Protocol: (§1) AChE (EC 3.1.1.7, Type VI-S, from electric eel, C3389; from human, C1682) and BuChE (EC 3.1.1.8, from equine serum, C0663; from human, B4186), 5,5'-dithiobis (2-nitrobenzoic acid) (DTNB, D218200), acetylthiocholine iodide (ATC, A5751), and butyrylthiocholine iodide (BTC, B3253) were obtained from Sigma-Aldrich (St. Louis, MO).
(§2) The inhibitory effects of the synthesised compounds in this paper were evaluated according to our previously reported method. […] ATC/BTC iodide solution (0.075 M) was prepared in deionised water. […] The assay buffer was prepared as follows: potassium dihydrogen phosphate (1.36 g, 10 mmol) was dissolved in 100 ml of water. The pH of the solution was then adjusted to 8.0 ± 0.1 with KOH. Stock solutions of the test samples were dissolved in ethanol to give a final concentration of 10^−4 M when diluted to the final volume of 3.32 ml. For each compound, a dilution series of at least five different concentrations (normally 10^−5–10^−9 M) were prepared.
(§3) For measurement, a cuvette containing 3.0 ml of phosphate buffer, 100 µL of AChE or BuChE, 100 µL of DTNB, and 100 µL of the test compound solution were added in sequence. The reaction was initiated after adding 20 µL of ATC or BTC, and the solution was mixed immediately. […] For the reference value, 100 µL of water replaced the test compound solution. For the blank control, additionally 100 µL of water replaced the enzyme solution. The measurement for each concentration was assayed in triplicate. GraphPad Prism 5 was used for data processing. The inhibition curve was fitted by plotting percentage enzyme activity (100% for the reference) versus logarithm of test compound concentration. The IC50 values were calculated according to the curve, and the data were shown in mean ± SEM.
(§4) The inhibitory effects on ChEs of all the target compounds were determined according to Ellman’s method. AChE from electrophorus electricus (eeAChE) and BuChE from equine serum (eqBuChE) were used in the assays.

[2] = target: T2, BuChE (EC 3.1.1.8) from horse serum (Equus caballus, UniProt P81908); test: biochemical; format: biochemical; details: BuChE from horse serum; mean ± SEM of three experiments
T2 construct: purchased Sigma-Aldrich C0663; host or cells: equine serum
Protocol: as §1, §2, §3, §4

huAChE = target: T3, huAChE (Homo sapiens, UniProt P22303); test: Kinetic study of huAChE inhibition (Lineweaver-Burk, Michaelis-Menten); format: biochemical; details: Lineweaver–Burk plots, 1, 2, 4, 10 nM
T3 construct: purchased Sigma-Aldrich C1682
Protocol: (§5) Kinetic studies were performed according to methods reported previously. The concentrations of the substrate ATC or BTC were prepared as 25, 50, 90, 150, 226, and 452 µM. Different concentrations of compound 19 with 0, 1, 2, 4, 10 nM, were also prepared by stock solution. For measurement, the enzymatic reaction was extended to 20 min (huAChE and huBuChE) before the determination of the absorption. Graph Pad Prism 5 was applied for data processing. Vmax and Km values of the Michaelis–Menten kinetics were determined by nonlinear regression from substrate-velocity curves, while Lineweaver–Burk plots were fitted by using linear regression method.

huBuChE = target: T4, huBuChE (Homo sapiens, UniProt P06276); test: Kinetic study of huBuChE inhibition (Lineweaver-Burk, Michaelis-Menten); format: biochemical; details: Lineweaver–Burk plots, 1, 2, 4, 10 nM
T4 construct: purchased Sigma-Aldrich B4186
Protocol: as §5

Aβ1–42 = target: T5, Aβ1–42 (Homo sapiens, UniProt P05067); test: Inhibition of self-induced Aβ1–42 aggregation (Thioflavin T assay); format: biochemical; details: compound 25 μM, 24 h, read-out: Inhibitory rate on self-induced Aβ1-42 aggregation
T5 construct: aliquots of 2.0 µL of Aβ1–42 (AS-64129–05 Anaspec Inc.); purchased Anaspec Inc. AS-64129–05
Protocol: Inhibitory effects of the compounds on self-induced Aβ1–42 aggregation were evaluated using a Thioflavin T (ThT)-(T3516, Sigma-Aldrich, St. Louis, MO) binding assay according to the previously reported method. […] The Aβ1–42 and the test sample solutions were incubated for 24 h at the room temperature.
The inhibitory rate of Aβ1–42 self-induced aggregation was calculated according to the following equation: (1-IFi/IFc) × 100%. IFi and IFc were the fluorescence intensities in the presence and absence of inhibitors, respectively, after subtracting the background fluorescence of the 5 mM Thioflavin T solution. Each measurement was repeated in triplicate. The inhibitory rate of the test compound was shown in mean ± SD.

ICR mice [3] = system: ICR mice
Protocol: The activity of AST and ALT, two indicators of liver damage, was determined using corresponding assay kit (EF551 and EF550 for ALT, EH027, and EF548 for AST, Wako, Japan).
One hour after the collection of retrobulbar blood, mice were sacrificed and livers were harvested for morphological studies by using immunohistochemical method. Two 3 mm sections of each liver extending from the hilus to the margin of the left lateral lobe were isolated by Ultra-Thin Semiautomatic Microtome (Leica RM2245, Germany) and immediately placed in 10% buffered formaldehyde, fixed for two days, and embedded together in one paraffin block by using Paraffin Embedding Station (Leica EG1150H, Germany). Subsequently, 5 µm sections were prepared from these paraffin blocks. They were deparaffinated and stained with hematoxylin and eosin or by means of the periodic acid-Schiff procedure for glycogen.

ICR mice [4] = test: Morris water maze test, scopolamine-induced cognitive impairment
[5] = 22 h after ig administration, 151.5 µmol/kg, mice serum, n = 6
[6] = 36 h after ig administration, 151.5 µmol/kg, mice serum, n = 6

T1 sequence (O42275 24-633): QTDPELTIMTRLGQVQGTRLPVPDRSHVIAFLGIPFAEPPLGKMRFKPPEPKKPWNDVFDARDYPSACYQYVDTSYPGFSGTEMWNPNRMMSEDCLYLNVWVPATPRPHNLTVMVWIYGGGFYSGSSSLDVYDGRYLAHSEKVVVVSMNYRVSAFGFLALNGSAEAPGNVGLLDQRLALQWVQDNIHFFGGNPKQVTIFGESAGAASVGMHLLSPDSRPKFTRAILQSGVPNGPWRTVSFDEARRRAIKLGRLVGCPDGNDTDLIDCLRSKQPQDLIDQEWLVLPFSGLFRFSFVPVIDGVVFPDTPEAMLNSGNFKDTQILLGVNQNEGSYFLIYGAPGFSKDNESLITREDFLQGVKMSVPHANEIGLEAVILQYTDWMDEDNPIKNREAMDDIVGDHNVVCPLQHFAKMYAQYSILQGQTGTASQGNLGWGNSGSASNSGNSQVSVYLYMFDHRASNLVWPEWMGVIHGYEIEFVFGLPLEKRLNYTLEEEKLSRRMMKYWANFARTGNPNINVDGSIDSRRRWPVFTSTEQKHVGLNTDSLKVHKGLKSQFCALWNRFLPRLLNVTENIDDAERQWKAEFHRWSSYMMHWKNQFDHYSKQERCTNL
T5 sequence (P05067 672-713): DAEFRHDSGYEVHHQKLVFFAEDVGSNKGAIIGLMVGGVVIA
T4 sequence (P06276 29-602): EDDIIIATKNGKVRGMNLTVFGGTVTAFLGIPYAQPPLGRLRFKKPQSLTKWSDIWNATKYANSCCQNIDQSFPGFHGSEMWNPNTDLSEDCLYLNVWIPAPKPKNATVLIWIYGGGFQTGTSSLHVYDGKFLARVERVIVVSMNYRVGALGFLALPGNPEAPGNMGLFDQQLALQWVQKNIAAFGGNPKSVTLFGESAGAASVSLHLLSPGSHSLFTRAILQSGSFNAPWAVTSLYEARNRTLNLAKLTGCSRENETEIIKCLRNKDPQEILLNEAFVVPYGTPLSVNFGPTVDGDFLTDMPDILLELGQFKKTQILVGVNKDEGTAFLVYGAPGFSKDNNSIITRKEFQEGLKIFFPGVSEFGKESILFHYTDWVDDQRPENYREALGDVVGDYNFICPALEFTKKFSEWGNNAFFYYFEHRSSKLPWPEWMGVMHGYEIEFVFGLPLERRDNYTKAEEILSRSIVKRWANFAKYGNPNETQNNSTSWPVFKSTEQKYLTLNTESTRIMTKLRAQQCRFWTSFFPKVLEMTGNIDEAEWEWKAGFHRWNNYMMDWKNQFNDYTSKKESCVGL
T3 sequence (P22303 32-614): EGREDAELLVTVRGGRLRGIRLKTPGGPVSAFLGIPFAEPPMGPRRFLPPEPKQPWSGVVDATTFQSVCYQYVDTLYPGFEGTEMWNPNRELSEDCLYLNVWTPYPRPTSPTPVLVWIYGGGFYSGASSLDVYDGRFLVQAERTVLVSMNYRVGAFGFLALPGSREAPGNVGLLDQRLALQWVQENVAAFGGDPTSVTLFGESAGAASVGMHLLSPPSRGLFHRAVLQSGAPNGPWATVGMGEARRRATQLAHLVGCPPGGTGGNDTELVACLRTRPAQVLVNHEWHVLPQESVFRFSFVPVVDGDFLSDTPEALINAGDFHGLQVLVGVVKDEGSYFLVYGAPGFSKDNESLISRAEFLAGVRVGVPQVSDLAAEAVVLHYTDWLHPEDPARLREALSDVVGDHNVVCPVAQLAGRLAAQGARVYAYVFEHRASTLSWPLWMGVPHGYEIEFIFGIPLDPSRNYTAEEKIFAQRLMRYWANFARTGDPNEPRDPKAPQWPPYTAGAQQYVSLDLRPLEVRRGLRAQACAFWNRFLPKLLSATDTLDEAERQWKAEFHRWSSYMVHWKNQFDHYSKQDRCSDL
T2 sequence (P81908 whole entry): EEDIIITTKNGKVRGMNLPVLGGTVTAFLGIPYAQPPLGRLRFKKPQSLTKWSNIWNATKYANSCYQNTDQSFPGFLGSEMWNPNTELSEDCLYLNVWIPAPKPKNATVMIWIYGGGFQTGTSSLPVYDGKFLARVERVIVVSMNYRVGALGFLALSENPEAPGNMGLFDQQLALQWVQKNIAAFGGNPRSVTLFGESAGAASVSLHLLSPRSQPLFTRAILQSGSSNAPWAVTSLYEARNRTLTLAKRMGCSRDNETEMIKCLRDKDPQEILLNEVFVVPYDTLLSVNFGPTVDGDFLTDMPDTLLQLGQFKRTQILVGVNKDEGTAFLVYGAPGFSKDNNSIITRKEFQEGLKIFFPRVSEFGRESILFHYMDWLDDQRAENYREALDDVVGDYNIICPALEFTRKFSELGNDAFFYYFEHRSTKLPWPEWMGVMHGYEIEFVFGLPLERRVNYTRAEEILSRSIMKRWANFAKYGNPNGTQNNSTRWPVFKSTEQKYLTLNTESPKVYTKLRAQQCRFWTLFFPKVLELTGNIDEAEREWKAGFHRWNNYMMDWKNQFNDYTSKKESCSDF

O=C(/C=C/c1ccc([N+](=O)[O-])cc1)NCCCCCCNc1c2c(nc3ccccc13)CCCC2 [Compound 19, (E)-3-(4-nitrophenyl)-N-(6-((1,2,3,4-tetrahydroacridin-9-yl)amino)hexyl)acrylamide]
IC50 ([1]; AChE from electric eel, mean ± SEM of three experiments): 2.7 ± 0.4 nM
Selectivity index (SI) = BuChE IC50/AChE IC50 ([1]; eqBuChE IC50 / eeAChE IC50): 2.4
IC50 [2]: 6.5 ± 0.6 nM
type of inhibition on huAChE (huAChE): noncompetitive
type of inhibition on huBuChE (huBuChE): mixed-type inhibition
inhibition at 25 µM (Aβ1–42): 31.8%
AST (U/L) (ICR mice [3]; 8 h after ig administration, 151.5 µmol/kg, mice serum, n = 6): 119.6 ± 10.8 U/L
ALT (U/L) (ICR mice [3]; [5]): 44.4 ± 3.9 U/L
AST (U/L) (ICR mice [3]; [5]): 130.6 ± 8.2 U/L
ALT (U/L) (ICR mice [3]; [6]): 40.2 ± 2.5 U/L
AST (U/L) (ICR mice [3]; [6]): 133.9 ± 13.5 U/L
ALT (U/L) (ICR mice [3]; mouse, in vivo): 36.0 ± 2.9 U/L
morphologic changes in liver (ICR mice [3]; mouse, in vivo): did not cause remarkable morphologic changes in liver
Latency to target (second), Day 5 (ICR mice [4]; learning and training, Day 5, oral, plus scopolamine, ICR mice): 54.1 ± 8.9 s
Latency to target (second), Day 6 (ICR mice [4]; learning and training, Day 6, oral, plus scopolamine, ICR mice): 36.5 ± 4.2 s
Latency to target (second), Day 7 (ICR mice [4]; learning and training, Day 7, oral, plus scopolamine, ICR mice): 36.6 ± 4.3 s
Latency to target (second), Day 8 (ICR mice [4]; learning and training, Day 8, oral, plus scopolamine, ICR mice): 35.2 ± 4.7 s
Latency to target (second), Day 9 (ICR mice [4]; learning and training, Day 9, oral, plus scopolamine, ICR mice): 26.1 ± 1.4 s
Latency to Target (ICR mice [4]; probe trial, oral administration plus scopolamine (1 mg/kg ip), ICR mice, mean ± SEM, n = 6): 25.0 ± 1.5 s
trajectory in the Morris water maze test (ICR mice [4]; scopolamine-impaired ICR mice, compared to tacrine group): much shortened distances as compared to tacrine group
